Measurements as given in patent US20160158317A1, “Antimicrobial Peptide Variants and Polynucleotides Encoding Same” (Adenium Biotech A/S, priority 2010, published 2016).
Where a SMILES comes first, the peptide text is derived from it. Bridges are numbered along the chain shown (N, C = ends).

Experiment: Determination of the protein binding (90% serum, 30 kDa filter, HPLC)
Assay type: in vitro ADME
Settings: serum
Protocol: Protein binding assays were performed as follows. The purified peptides were mixed with 90% serum and centrifuged through a 30 kDa filter. The ultra-filtrate and the non filtrated serum samples were quantified by HPLC measurements and the protein binding was subsequently calculated.

SMILES: CC(C)[C@@H]1NC(=O)CNC(=O)[C@H](CC(N)=O)NC(=O)[C@H](CCCNC(=N)N)NC(=O)[C@H](Cc2ccc(O)cc2)NC(=O)[C@H](C(C)C)NC(=O)[C@@H]2CSSC[C@H](NC(=O)[C@H](C(C)C)NC(=O)[C@H](CCCNC(=N)N)NC1=O)C(=O)N[C@@H](Cc1ccc(O)cc1)C(=O)N[C@@H](CCCNC(=N)N)C(=O)N[C@@H](CCCNC(=N)N)C(=O)N[C@H](C(=O)N[C@H](C(=O)O)[C@@H](C)O)CSSC[C@H](NC(=O)[C@H](Cc1ccccc1)NC(=O)CN)C(=O)N[C@@H](Cc1c[nH]c3ccccc13)C(=O)N[C@@H](Cc1ccc(O)cc1)C(=O)N[C@@H](C(C)C)C(=O)N2 [compound 54] (H-GFCWYVCVYRNGVRVCYRRCT-OH; disulfide 3-20, 7-16 (inferred); N-terminus and C-terminus assumed)
- fraction unbound: 0.01

SMILES: CC(C)[C@@H]1NC(=O)CNC(=O)[C@H](CC(N)=O)NC(=O)[C@H](CCCNC(=N)N)NC(=O)[C@H](CCCNC(=N)N)NC(=O)[C@H](C(C)C)NC(=O)[C@@H]2CSSC[C@H](NC(=O)[C@H](C(C)C)NC(=O)[C@H](CCCNC(=N)N)NC1=O)C(=O)N[C@@H](Cc1c[nH]cn1)C(=O)N[C@@H](CCCNC(=N)N)C(=O)N[C@@H](CCCNC(=N)N)C(=O)N[C@H](C(=O)N[C@@H](CC(N)=O)C(=O)O)CSSC[C@H](NC(=O)[C@H](Cc1ccccc1)NC(=O)CN)C(=O)N[C@@H](Cc1c[nH]c3ccccc13)C(=O)N[C@@H](CC(N)=O)C(=O)N[C@@H](C(C)C)C(=O)N2 [compound 308] (H-GFCWNVCVRRNGVRVCHRRCN-OH; disulfide 3-20, 7-16 (inferred); N-terminus and C-terminus assumed)
- fraction unbound: 0.06

SMILES: CC(C)[C@@H]1NC(=O)CNC(=O)[C@H](CC(N)=O)NC(=O)[C@H](CCCNC(=N)N)NC(=O)[C@H](Cc2ccc(O)cc2)NC(=O)[C@H](C(C)C)NC(=O)[C@@H]2CSSC[C@H](NC(=O)[C@H](CCCNC(=N)N)NC(=O)[C@H](CCCNC(=N)N)NC1=O)C(=O)N[C@@H](Cc1ccc(O)cc1)C(=O)N[C@@H](CCCNC(=N)N)C(=O)N[C@@H](CCCNC(=N)N)C(=O)N[C@H](C(=O)N[C@@H](CC(N)=O)C(=O)O)CSSC[C@H](NC(=O)[C@H](Cc1ccccc1)NC(=O)CN)C(=O)NCC(=O)N[C@@H](Cc1c[nH]cn1)C(=O)N[C@@H](C(C)C)C(=O)N2 [compound 155] (H-GFCGHVCVYRNGVRRCYRRCN-OH; disulfide 3-20, 7-16 (inferred); N-terminus and C-terminus assumed)
- fraction unbound: 0.17

SMILES: CC(C)[C@@H]1NC(=O)CNC(=O)[C@H](CC(N)=O)NC(=O)[C@H](CCCNC(=N)N)NC(=O)[C@H](Cc2ccc(O)cc2)NC(=O)[C@H](CO)NC(=O)[C@@H]2CSSC[C@H](NC(=O)[C@H](C(C)C)NC(=O)[C@H](CCCNC(=N)N)NC1=O)C(=O)N[C@@H](Cc1ccc(O)cc1)C(=O)N[C@@H](CCCNC(=N)N)C(=O)N[C@@H](CCCNC(=N)N)C(=O)N[C@H](C(=O)N[C@@H](CC(N)=O)C(=O)O)CSSC[C@H](NC(=O)[C@H](Cc1ccccc1)NC(=O)CN)C(=O)N[C@@H](Cc1c[nH]c3ccccc13)C(=O)N[C@@H](Cc1ccc(O)cc1)C(=O)N[C@@H](C(C)C)C(=O)N2 [compound 24] (H-GFCWYVCSYRNGVRVCYRRCN-OH; disulfide 3-20, 7-16)
- fraction unbound: 0.15

SMILES: CC(C)[C@@H]1NC(=O)CNC(=O)[C@H](CC(N)=O)NC(=O)[C@H](CCCNC(=N)N)NC(=O)[C@H](Cc2ccc(O)cc2)NC(=O)[C@H](C(C)C)NC(=O)[C@@H]2CSSC[C@H](NC(=O)[C@H](CCCNC(=N)N)NC(=O)[C@H](CCCNC(=N)N)NC1=O)C(=O)N[C@@H](Cc1ccc(O)cc1)C(=O)N[C@@H](CCCNC(=N)N)C(=O)N[C@@H](CCCNC(=N)N)C(=O)N[C@H](C(=O)N[C@@H](CC(N)=O)C(=O)O)CSSC[C@H](NC(=O)[C@H](Cc1ccccc1)NC(=O)CN)C(=O)N[C@@H](Cc1ccc(O)cc1)C(=O)N[C@@H](CC(N)=O)C(=O)N[C@@H](C(C)C)C(=O)N2 [compound 207] (H-GFCYNVCVYRNGVRRCYRRCN-OH; disulfide 3-20, 7-16 (inferred); N-terminus and C-terminus assumed)
- fraction unbound: 0.09

SMILES: CC(C)[C@@H]1NC(=O)CNC(=O)[C@H](CC(N)=O)NC(=O)[C@H](CCCNC(=N)N)NC(=O)[C@H](CCCNC(=N)N)NC(=O)[C@H](C(C)C)NC(=O)[C@@H]2CSSC[C@H](NC(=O)[C@H](C(C)C)NC(=O)[C@H](CCCNC(=N)N)NC1=O)C(=O)N[C@@H](Cc1c[nH]cn1)C(=O)N[C@@H](CCCNC(=N)N)C(=O)N[C@@H](CCCNC(=N)N)C(=O)N[C@H](C(=O)N[C@@H](CC(N)=O)C(=O)O)CSSC[C@H](NC(=O)[C@H](Cc1ccccc1)NC(=O)CN)C(=O)N[C@@H](Cc1c[nH]c3ccccc13)C(=O)N[C@@H](CCCNC(=N)N)C(=O)N[C@@H](C(C)C)C(=O)N2 [compound 335] (H-GFCWRVCVRRNGVRVCHRRCN-OH; disulfide 3-20, 7-16 (inferred); N-terminus and C-terminus assumed)
- fraction unbound: 0.05

SMILES: CC(C)[C@@H]1NC(=O)[C@@H]2CSSC[C@H](NC(=O)[C@H](CCCCN)NC(=O)[C@H](CCCNC(=N)N)NC(=O)[C@H](C)NC(=O)CNC(=O)[C@H](CC(N)=O)NC(=O)[C@H](CCCNC(=N)N)NC(=O)[C@H](CCCCN)NC1=O)C(=O)N[C@@H](Cc1c[nH]cn1)C(=O)N[C@@H](CCCNC(=N)N)C(=O)N[C@@H](CCCNC(=N)N)C(=O)N[C@H](C(=O)N[C@@H](CC(N)=O)C(=O)O)CSSC[C@H](NC(=O)[C@H](Cc1ccccc1)NC(=O)CN)C(=O)N[C@@H](Cc1c[nH]c3ccccc13)C(=O)N[C@@H](Cc1ccc(O)cc1)C(=O)N[C@@H](C(C)C)C(=O)N2 [compound 454] (H-GFCWYVCVKRNGARKCHRRCN-OH; disulfide 3-20, 7-16 (inferred); N-terminus and C-terminus assumed)
- fraction unbound: 0.1

SMILES: CC[C@H](C)[C@@H]1NC(=O)[C@H](CCCNC(=N)N)NC(=O)[C@H](C(C)C)NC(=O)CNC(=O)[C@H](CC(N)=O)NC(=O)[C@H](CCCNC(=N)N)NC(=O)[C@H](Cc2ccc(O)cc2)NC(=O)[C@H](C(C)C)NC(=O)[C@@H]2CSSC[C@H](NC1=O)C(=O)N[C@@H](Cc1c[nH]cn1)C(=O)N[C@@H](CCCNC(=N)N)C(=O)N[C@@H](CCCNC(=N)N)C(=O)N[C@H](C(=O)N[C@@H](CC(N)=O)C(=O)O)CSSC[C@H](NC(=O)[C@H](Cc1ccccc1)NC(=O)CN)C(=O)N[C@@H](Cc1c[nH]c3ccccc13)C(=O)N[C@@H](CC(N)=O)C(=O)N[C@@H](C(C)C)C(=O)N2 [compound 248] (H-GFCWNVCVYRNGVRICHRRCN-OH; disulfide 3-20, 7-16 (inferred); N-terminus and C-terminus assumed)
- fraction unbound: 0.42

SMILES: CC(C)[C@@H]1NC(=O)CNC(=O)[C@H](CC(N)=O)NC(=O)[C@H](CCCNC(=N)N)NC(=O)[C@H](Cc2ccc(O)cc2)NC(=O)[C@H](C(C)C)NC(=O)[C@@H]2CSSC[C@H](NC(=O)[C@H](C(C)C)NC(=O)[C@H](CCCNC(=N)N)NC1=O)C(=O)N[C@@H](Cc1c[nH]cn1)C(=O)N[C@@H](CCCNC(=N)N)C(=O)N[C@@H](CCCNC(=N)N)C(=O)N[C@H](C(=O)N[C@@H](CC(N)=O)C(=O)O)CSSC[C@H](NC(=O)[C@H](Cc1ccccc1)NC(=O)CN)C(=O)N[C@@H](Cc1c[nH]c3ccccc13)C(=O)N[C@@H](CC(N)=O)C(=O)N[C@@H](C(C)C)C(=O)N2 [compound 70] (H-GFCWNVCVYRNGVRVCHRRCN-OH; disulfide 3-20, 7-16 (inferred); N-terminus and C-terminus assumed)
- fraction unbound: 0.21

SMILES: CC(C)[C@@H]1NC(=O)[C@H](CCCNC(=N)N)NC(=O)[C@H](C)NC(=O)CNC(=O)[C@H](CC(N)=O)NC(=O)[C@H](CCCNC(=N)N)NC(=O)[C@H](CCCCN)NC(=O)[C@H](C(C)C)NC(=O)[C@@H]2CSSC[C@H](NC1=O)C(=O)N[C@@H](Cc1ccc(O)cc1)C(=O)N[C@@H](CCCNC(=N)N)C(=O)N[C@@H](CCCNC(=N)N)C(=O)N[C@H](C(=O)N[C@@H](CC(N)=O)C(=O)O)CSSC[C@H](NC(=O)[C@H](Cc1ccccc1)NC(=O)CN)C(=O)N[C@@H](C)C(=O)N[C@@H](Cc1c[nH]cn1)C(=O)N[C@@H](C(C)C)C(=O)N2 [compound 362] (H-GFCAHVCVKRNGARVCYRRCN-OH; disulfide 3-20, 7-16 (inferred); N-terminus and C-terminus assumed)
- fraction unbound: 0.24

SMILES: CC(C)[C@@H]1NC(=O)CNC(=O)[C@H](CC(N)=O)NC(=O)[C@H](CCCNC(=N)N)NC(=O)[C@H](Cc2ccc(O)cc2)NC(=O)[C@H](C(C)C)NC(=O)[C@@H]2CSSC[C@H](NC(=O)[C@H](C(C)C)NC(=O)[C@H](CCCNC(=N)N)NC1=O)C(=O)N[C@@H](Cc1c[nH]cn1)C(=O)N[C@@H](CCCNC(=N)N)C(=O)N[C@@H](CCCNC(=N)N)C(=O)N[C@H](C(=O)N[C@@H](CC(N)=O)C(=O)O)CSSC[C@H](NC(=O)[C@H](Cc1ccccc1)NC(=O)[C@@H](N)Cc1c[nH]cn1)C(=O)N[C@@H](Cc1c[nH]c3ccccc13)C(=O)N[C@@H](CC(N)=O)C(=O)N[C@@H](C(C)C)C(=O)N2 [compound 98] (H-HFCWNVCVYRNGVRVCHRRCN-OH; disulfide 3-20, 7-16 (inferred); N-terminus and C-terminus assumed)
- fraction unbound: 0.23

SMILES: CC(C)[C@@H]1NC(=O)[C@H](CCCNC(=N)N)NC(=O)[C@H](CCCNC(=N)N)NC(=O)CNC(=O)[C@H](CC(N)=O)NC(=O)[C@H](CCCNC(=N)N)NC(=O)[C@H](Cc2ccc(O)cc2)NC(=O)[C@H](C(C)C)NC(=O)[C@@H]2CSSC[C@H](NC1=O)C(=O)N[C@@H](Cc1c[nH]cn1)C(=O)N[C@@H](CCCNC(=N)N)C(=O)N[C@@H](CCCNC(=N)N)C(=O)N[C@H](C(=O)N[C@@H](CC(N)=O)C(=O)O)CSSC[C@H](NC(=O)[C@H](Cc1ccccc1)NC(=O)CN)C(=O)N[C@@H](Cc1c[nH]c3ccccc13)C(=O)N[C@@H](CC(N)=O)C(=O)N[C@@H](C(C)C)C(=O)N2 [compound 239] (H-GFCWNVCVYRNGRRVCHRRCN-OH; disulfide 3-20, 7-16 (inferred); N-terminus and C-terminus assumed)
- fraction unbound: 0.35
